Data set [1] is described as follows: FLIM of stained GUVs with varying compositions. The class given is physicochemical. The conditions noted are these: 1 μM. The source says: FLIM is a time-resolved method used to obtain information on the emission decay of a fluorophore in different cellular environments. Being independent of parameters such as local dye concentration, absorption profile, and excitation intensity, FLIM is sensitive to changes in the fluorophore itself relative to intensity-based measurements. Accordingly, we first used GUV model systems with a well-defined composition to measure the lifetime of the probe in environments of known lipid packing. For this purpose, use used compositions of, in order of increased membrane tension, DOPC, DOPC with cholesterol (Chol), sphyngomyelin (SM) and SM with Chol. This series of GUVs allows us to examine to what extent τw of intercalated COE-BYPhOC4 is responsive to different levels of membrane tension.
GUVs were thus first stained with 1 μM COE-BYPhOC4 and were imaged via conventional FLIM. […] All the lifetimes measured are predominantly described by a mono-exponential fit. […]

Data set [2] in a line: Analyte viscosity sensing: fluorescence lifetime in the presence of different analytes. Type of data set: physicochemical. The conditions noted are these: 0.5 μM. The method, then: Solutions of bovine serum albumin (BSA), high density lipoprotein (HDL), Liposomes of POPC:POPG 85:15 (SUVs) and Liposomes of POPC:POPG:Cholesterol 42.5:7.5:50 (SUV CHOL) were prepared at final concentrations of 1 mg/mL in PBS. COE-BYs were prepared at 1 μM in PBS. 150 μL of analyte and 150 μL of COE-BYs were mixed and incubated for 1 hour at 37C. Fluorescent emission profiles were measured with excitation at 545 nm.

In data set [3] the test system is A549 cells. Description: Confocal microscopy of stained cells. The class given is cell-based. The method, then: A549 cells were stained for 5 minutes with 0.75 μM COE-BYPhMe (red channel) before imaging and Hoechst 33342 (blue channel).
Our next objective was to study the cellular distribution of COE-BYPhOC4 series at different time points by conventional confocal microscopy.

In data set [4] the test system is HeLa cells. Description: Uptake after pretreatment with endocytic inhibitors, flow cytometry. The following applies: 1 μM dye, 3 h. Type of data set: cell-based. The method, then: (§1) To further understand the internalization of COE-BYPhOC4, A549 and HeLa cells were pretreated with endocytic inhibitors including pharmacological treatments genistein (caveolae-dependent), chlorpromazine (clathrin-dependent) and low temperature (energy-dependent). Cells were then stained by treatment with 1 μM COE-BYPhOC4 and the endocytosis inhibition efficiency was characterized by flow cytometry and fluorescence confocal imaging. […] The confocal images in FIG. 13C provide additional confirmation of this endocytosis pathway. Fluorescence signals are only observed on the plasma membranes in the chlorpromazine pretreated group, while COE-BYPhOC4 readily underwent endocytosis and appeared as red vesicular puncta in the other three groups. Successful plasma membrane staining similar to FIG. 12A also provides evidence of insertion into the membrane prior to endocytosis and subsequent trafficking together with other lipid molecules, as opposed to being directly engulfed within intracellular vesicles. This feature enables the dye to follow the endosomal pathway throughout the maturation process beginning from the plasma membrane, as opposed to commonly employed pH-dependent methods to control accumulation within vesicle subtypes.
On the technique in general: In flow cytometry, cells or beads pass a laser one at a time.

The subject of data set [5] is A549 cells. The data set is described as above. The following applies: 1 μM dye, 3 h. The class given is cell-based. How it is done:
as §1

The nature of data set [6]: Two-photon absorption cross section. Type of data set: physicochemical. The following applies: intercalated into SUVs. The text has this:
Dynamic biological processes in live cells often take place at a rapid time scale, necessitating rapid image acquisition. For 2P-FLIM applications, this is especially relevant since a significant photon count is required to ensure accurate decay statistics and lifetime values. Two-photon imaging provides access to the NIR-II window for excitation (1000-1700 nm), minimizing photodamage and eliminating out of focus noise. As such, dye brightness plays a key role in enabling high-quality imaging. We thus evaluated their two-photon absorption cross-section of the COE-BY series. […] These properties will become relevant when determining the utility of COE-BYPhOC4 to image the endocytosis pathway and different response of living cells.

Data set [7] concerns HeLa cells. Briefly: Time-dependent colocalization with organelle probes, confocal microscopy. Type of data set: cell-based. How it is done: (b) Confocal image of A549 cells stained with 1 μM COE-BYPhOC4. Confocal images of (c) A549 and (d) HeLa cells. Cells were prestained with COE-BYPhOC4 (red) for 4 hours and then stained with commercial plasma membrane dye CellMask Deep Red (blue and green, respectively) for 5 min. (e) Confocal images for time-dependent colocalization experiments. HeLa cells were stained with 1 μM COE-BYPhOC4 with different incubation times (2 h, 8 h, 24 h and 48 h). Cells were imaged in multiple channels to collect fluorescence signals from COE-BYPhOC4 and other commercial organelle dyes. Red: COE-BYPhOC4; the first column green: CellLight Early Endosome-GFP; the second column green: CellLight Late Endosome-GFP; the third column deep blue: CellLight Lysosomes-GFP; the fourth column sky blue: HCS LipidTOX™ Deep Red; the fifth column yellow: MitoTracker Deep Red. Scale bar: 5 μm.
Insights into the intracellular location of COE-BYPhOC4 at different time points were sought through colocalization experiments with a panel of common commercial organelle probes (CellLight Early Endosome-GFP, CellLight Late Endosome-GFP, CellLight Lysosomes-GFP, LipidTOX™ Deep Red, and MitoTracker Deep Red). To label the vesicles in the endocytic pathway with high specificity and avoid dye translocation associated with alkalinizing effects and equilibrium shifts after extended durations, we elected to use GFP-tagged markers that are definitive for each vesicle subtype, namely Rab5a, Rab7a, and Lamp-1 for early endosomes, late endosomes, and lysosomes respectively. […] Subsequently at 8 hours, the highest overlay can be observed from COEs and the late endosome marker. Prolonged incubation beyond this point further increased the degree of colocalization, from 0.73 at 8 hours to 0.95 at 48 h.

Take `CCCCOc1ccc(C2=C3C(C)=C(c4ccc(/C=C/c5cc(OCCCCCC[N+](C)(C)C)c(OCCCCCC[N+](C)(C)C)c(OCCCCCC[N+](C)(C)C)c5)cc4)C(C)=[N+]3[B-](F)(F)n3c(C)c(-c4ccc(/C=C/c5cc(OCCCCCC[N+](C)(C)C)c(OCCCCCC[N+](C)(C)C)c(OCCCCCC[N+](C)(C)C)c5)cc4)c(C)c32)cc1.[I-].[I-].[I-].[I-].[I-].[I-]` [COE-BYPhOC4]: the τw was 1.6±0.2 ns in data set [1] (DOPC GUVs) and 2.8±0.3 ns in data set [1] (SM/Chol vesicles). In addition, the Lifetime in data set [2] (analyte HDL 0.5 mg/mL) is 4.02 ± 0.01 ns; in data set [2] (analyte PBS), 0.56 ± 0.01 ns; in data set [2] (analyte SUV (POPC:POPG 85:15) 0.5 mg/mL), 1.99 ± 0.01 ns; in data set [2] (analyte SUV CHOL (POPC:POPG:Cholesterol 42.5:7.5:50) 0.5 mg/mL) it was 2.18 ± 0.01 ns. The staining pattern entry in data set [3] (A549, 1 μM, 10 minutes) is “strong fluorescence signals were observed on the plasma membranes”. Also, the location of emission result in data set [3] (incubation for 4 hours) was “predominantly intracellular emission”. In addition, the “dye fluorescence intensity relative to the untreated group” value in data set [4] (chlorpromazine pretreatment) was 21%; in data set [4] (genistein pretreatment), 92%; in data set [5] (A549, chlorpromazine pretreatment), 14%; in data set [5] (A549, genistein pretreatment) it was 95%. The “two photon absorption cross section area” value in data set [6] is 486 GM. The “degree of colocalization with late endosome marker” value in data set [7] (1 μM, 8 hours) is 0.73; in data set [7] (1 μM, 48 h) it was 0.95. Moreover, the “Pearson's correlation coefficient value (R) relative to GFP-tagged Rab5a (early endosome)” value in data set [7] (1 μM, incubation 2 h) worked out at 0.71. Also, the “colocalization with lipid droplets and mitochondria markers” value in data set [7] (all timepoints) is “poor colocalization with lipid droplets and mitochondria markers at all timepoints”.
